Experimental data from the supplement of paper PMC7017272.
± gives the standard deviation of the averaged measurements.

Key:
Conditions in all cases: treatment time: 3 days
[1] = system: UT-SCC-73; assay: relative IC50 (midpoint of the fitted curve; maximal inhibition may be below 50%); higher = less potent
Outline: (§1)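 Viability of HPV-negative HNSCC cell lines was measured by CellTiter-Glo 2.0 luminescence. Cells were seeded at 500 cells/well in 384-well plates on plastic, on Matrigel- or Myogel-coated wells (500 µg/mL), or embedded in Matrigel or Myogel plus rat collagen I, then given compounds at five 10-fold concentrations for 3 days, with signals normalised to vehicle (0.1% DMSO) and cell-killing control wells. Fitting of percent-inhibition dose–response curves in the FIMM pipeline yielded IC50, maximal inhibition and drug sensitivity score.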

[2] = system: UT-SCC-40; assay: as above
Outline: as §1

[3] = system: UT-SCC-24B; assay: as above
Outline: as §1

[4] = system: UT-SCC-42B; assay: as above
Outline: as §1

[5] = system: UT-SCC-106A; assay: as above
Outline: as §1

[6] = system: UT-SCC-44; assay: as above
Outline: as §1

[7] = system: UT-SCC-73; assay: maximal % inhibition of viability relative to DMSO; higher = stronger effect
Method: (§2)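 HNSCC cell lines (500 cells/well, 384-well) were cultured on plastic, on top of (2D) or embedded (3D) in Matrigel or human leiomyoma matrix Myogel (500 ug/mL; Myogel 3D mixed with rat collagen I). Cells were treated for 3 days with 5 ten-fold concentrations of each drug, and viability was read by CellTiter-Glo. Viability was normalised to DMSO and benzethonium chloride controls and fitted with the FIMM DSRT pipeline to give IC50 (nM), maximal % inhibition and DSS. Suffixes _1/_2/_3 are replicates. Only inhibition-mode (IC50) fits are kept.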

[8] = system: UT-SCC-40; assay: as above
Method: as §2

[9] = system: UT-SCC-8; assay: as above
Method: as §2

[10] = system: UT-SCC-28; assay: as above
Method: as §2

[11] = system: UT-SCC-42A; assay: as above
Method: as §2

[12] = system: UT-SCC-14; assay: as above
Method: as §2

[13] = system: UT-SCC-24B; assay: as above
Method: as §2

[14] = system: UT-SCC-42B; assay: as above
Method: as §2

[15] = system: UT-SCC-106A; assay: as above
Method: as §2

[16] = system: UT-SCC-81; assay: as above
Method: as §2

[17] = system: UT-SCC-44; assay: as above
Method: as §2

[18] = system: UT-SCC-24A; assay: drug sensitivity score (DSS); higher = more sensitive
Method: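 HNSCC cell lines (500 cells/well, 384-well) were cultured on plastic, on top of (2D) or embedded (3D) in Matrigel or human leiomyoma matrix Myogel (500 ug/mL; Myogel 3D mixed with rat collagen I). Cells were treated for 3 days with 5 ten-fold concentrations of each drug, and viability was read by CellTiter-Glo. Suffixes _1/_2/_3 on drug names are replicates.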

[19] = culture condition: embedded in Matrigel
[20] = culture condition: on top of Matrigel
[21] = culture condition: on top of Myogel
[22] = culture condition: plastic 2D (no matrix)
[23] = culture condition: embedded in Myogel + collagen I

relative IC50 [1, 19]: 28.2 nM
relative IC50 [1, 20]: 23.7 nM
relative IC50 [1, 21]: 65.3 nM
relative IC50 [1, 22]: 27.9 nM
relative IC50 [2, 19]: 16.5 nM
relative IC50 [2, 20]: 39.4 nM
relative IC50 [2, 21]: 54 nM
relative IC50 [2, 22]: 51.7 nM
relative IC50 [3, 19]: 115 nM
relative IC50 [3, 20]: 101 nM
relative IC50 [3, 22]: 69 nM
relative IC50 [4, 19]: 9.72 nM
relative IC50 [4, 20]: 47.8 nM
relative IC50 [4, 22]: 54.3 nM
relative IC50 [5, 19]: 8.97 nM
relative IC50 [5, 20]: 13.8 nM
relative IC50 [5, 21]: 101 nM
relative IC50 [5, 22]: 19.3 nM
relative IC50 [6, 19]: 19.6 nM
relative IC50 [6, 21]: 41.3 nM
SMILES: Cn1cnc2c(F)c(Nc3ccc(Br)cc3F)c(C(=O)NOCCO)cc21 [Binimetinib]
maximal % inhibition of viability [7, 19]: 80.5 ± 1.5%
maximal % inhibition of viability [7, 23]: 53.5 ± 17%
maximal % inhibition of viability [7, 20]: 76.8 ± 1.7%
maximal % inhibition of viability [7, 21]: 60.7 ± 0.93%
maximal % inhibition of viability [7, 22]: 66.9 ± 4.2%
maximal % inhibition of viability [8, 19]: 77.3 ± 2.2%
maximal % inhibition of viability [8, 23]: 58.1 ± 13%
maximal % inhibition of viability [8, 20]: 72.4 ± 2%
maximal % inhibition of viability [8, 21]: 44.7 ± 8.7%
maximal % inhibition of viability [8, 22]: 52.8 ± 6%
maximal % inhibition of viability [9, 19]: 40.9 ± 26%
maximal % inhibition of viability [9, 23]: 19.8 ± 23%
maximal % inhibition of viability [9, 20]: 28.9 ± 14%
maximal % inhibition of viability [9, 21]: 29 ± 15%
maximal % inhibition of viability [9, 22]: 31 ± 25%
maximal % inhibition of viability [10, 19]: 38.5 ± 2.6%
maximal % inhibition of viability [10, 23]: 12.5 ± 11%
maximal % inhibition of viability [10, 20]: 31.2 ± 2.9%
maximal % inhibition of viability [10, 22]: 21.9 ± 6.2%
maximal % inhibition of viability [11, 19]: 48.9 ± 1.6%
maximal % inhibition of viability [11, 23]: 24.5 ± 4.6%
maximal % inhibition of viability [11, 20]: 52.2 ± 5.8%
maximal % inhibition of viability [11, 21]: 28.6 ± 5.7%
maximal % inhibition of viability [11, 22]: 46.3 ± 2.8%
maximal % inhibition of viability [12, 19]: 29.8 ± 10%
maximal % inhibition of viability [12, 23]: 33.8 ± 15%
maximal % inhibition of viability [12, 20]: 33.3 ± 9.7%
maximal % inhibition of viability [12, 21]: 32.4 ± 24%
maximal % inhibition of viability [12, 22]: 25.9 ± 25%
maximal % inhibition of viability [13, 19]: 60.3 ± 0.64%
maximal % inhibition of viability [13, 23]: 49.6 ± 11%
maximal % inhibition of viability [13, 20]: 50.7 ± 2.5%
maximal % inhibition of viability [13, 21]: 28.6 ± 5.1%
maximal % inhibition of viability [13, 22]: 69.4 ± 4.1%
maximal % inhibition of viability [14, 19]: 66.2 ± 7.5%
maximal % inhibition of viability [14, 20]: 48.5 ± 15%
maximal % inhibition of viability [14, 21]: 24.8 ± 7%
maximal % inhibition of viability [14, 22]: 31.3 ± 8.6%
maximal % inhibition of viability [15, 19]: 48.3 ± 3.9%
maximal % inhibition of viability [15, 23]: 16.4 ± 2.9%
maximal % inhibition of viability [15, 20]: 60.1 ± 2.9%
maximal % inhibition of viability [15, 21]: 20.6 ± 2.3%
maximal % inhibition of viability [15, 22]: 62.2 ± 1.8%
maximal % inhibition of viability [16, 19]: 85.5 ± 1%
maximal % inhibition of viability [16, 23]: 18.7 ± 4.7%
maximal % inhibition of viability [16, 20]: 76.3 ± 3.8%
maximal % inhibition of viability [16, 21]: 23.5 ± 3.9%
maximal % inhibition of viability [16, 22]: 38.7 ± 2.1%
maximal % inhibition of viability [17, 19]: 70.1 ± 4.2%
maximal % inhibition of viability [17, 23]: 31.5 ± 8.1%
maximal % inhibition of viability [17, 20]: 52.9 ± 11%
maximal % inhibition of viability [17, 21]: 34 ± 5.1%
maximal % inhibition of viability [17, 22]: 45 ± 6.7%
drug sensitivity score [18, 19]: 24.4 ± 3.8 DSS
drug sensitivity score [18, 23]: 9.83 ± 4.3 DSS
drug sensitivity score [18, 20]: 19.9 ± 0.72 DSS
drug sensitivity score [18, 21]: 6.9 ± 0.85 DSS
drug sensitivity score [18, 22]: 18.1 ± 0.64 DSS
